The values below come from paper PMC10638401, “Mannich-type modifications of (−)-cannabidiol and (−)-cannabigerol leading to new, bioactive derivatives” (Scientific Reports, 2023).

Data set [1] has as its system Staphylococcus epidermidis biofilm forming. Briefly: MIC, broth micro dilution.
Procedure: (§6) According to CLSI guideline the Minimal Inhibitory Concentrations (MICs) of the prepared compounds were determined with the broth micro dilution method. After an overnight growth on 5% bovine blood agar plates at 35 °C bacterial strains were suspended in physiological saline in order to reach the density of 0.5 McFarland for inoculation. Stock solutions containing different concentrations of the substances were prepared in DMSO and H2O (1:1). These were twofold serially diluted from 256 to 0.5 mg/l in Mueller–Hinton broth, and 100 ml of each dilution was inoculated with 10 ml of each bacterial suspension.
Data set [2] deals with SZ95 sebocytes. As to the kind of experiment: Viability MTT-assay on sebocytes, 48 h. It counts as cell-based, human. Particulars: 30 μM. Here is the method:
(§1) Human immortalized SZ95 sebocytes, originated from human facial sebaceous glands[50] were provided by prof. Christos C. Zouboulis, and were cultured in Sebomed® Basal Medium (Cat. No. F8205; Sigma-Aldrich) supplemented with 10% FBS (Gibco-Thermo Fisher Scientific), 1 mM CaCl2 (Cat. No. C7902; Sigma-Aldrich), 5 ng/ml human epidermal growth factor (Cat. No. E9644; Sigma-Aldrich), and MycoZap™ Plus-CL (1:500; Lonza). The medium was changed every other day, and cells were subcultured at 60–70% confluence.
The viability of HaCaT keratinocytes and SZ95 sebocytes was determined by MTT-assay[58] (Cat. No. M5655; Sigma-Aldrich) measuring the conversion of the tetrazolium salt to formazan by mitochondrial dehydrogenases. Cells were plated in 96-well plates (20,000 cells/well), and were treated as indicated. Cells were then incubated with 0.5 mg/ml MTT reagent for 3 h, and concentration of formazan crystals (as an indicator of number of viable cells) was determined colorimetrically at 565 nm by using FlexStation 3 multi-mode microplate reader (Molecular Devices). Results were expressed as percentage of vehicle-treated control regarded as 100%.
On the technique in general: Tetrazolium assays rely on reduction of a dye to a coloured formazan, in cell work by metabolically active cells.

Data set [3] has as its system multidrug-resistant Acinetobacter baumannii. As to the kind of experiment: Antibacterial effect, broth micro dilution.
Procedure: as §6
The test system of data set [4] is Staphylococcus epidermidis mecA. As to the kind of experiment: MIC, broth micro dilution.
The test system of data set [5] is SARS-CoV-2. Briefly: SARS-CoV-2 cytopathic effect (CPE) inhibition assay in Vero E6 cells (XTT). The class given is cell-based. Conditions: Vero E6 cells, 3 days post-infection, XTT. Here is the method:
(§2) CBD and CBG derivatives were further tested for their ability to inhibit SARS-CoV-2 replication in Vero E6 cells. Initially, the inhibition of virus-induced cytopathic effect was measured by addition of twofold serial dilutions of each derivative to the cells, followed by the infection with SARS-CoV-2 and determination of the cell viability 3 days post-infection by XTT assay. Concurrently, the cytotoxicity of each compound was assessed from identical dilutions in uninfected Vero E6 cells. To confirm anti-SARS-CoV-2 activity in the CPE inhibition assay, selected compounds were tested in immunofluorescence assay, where inhibition of SARS-CoV-2 replication was monitored as reduction in nucleoprotein expression using fluorescence microscope. […] Among the CBG derivatives, we can find quite cytotoxic and non-cytotoxic derivatives as well.
(§3) For CPE-based assay, two-fold fold serial dilutions of compounds from 100 µM were added in triplicate in a 384-well plate with 5000 Vero E6 cells in DMEM medium with 2% FBS, 100 U of penicillin/ml and 100 µg of streptomycin/ml (all Merck). After 1 h incubation SARS-CoV-2 (strain hCoV-19/Czech Republic/NRL_6632_2/2020) was added at multiplicity of infection […]. Following three days incubation at 37 °C in 5% CO2 the cell viability was determined by addition of XTT solution (Sigma-Aldrich) for 4 h and the absorbance was measured using EnVision plate reader (Perkin Elmer). Drug concentrations required to reduce viral cytopathic effect by 50% (EC50) were calculated using nonlinear regression from plots of percentage cell viability versus log10 drug concentration using GraphPad Prism (version 9.0.0, GraphPad Software, LLC). For immunofluorescence assay, two-fold fold serial dilutions of compounds from 100 µM were added in triplicate in 96-well plate with 15,000 Vero E6 cells plated day before in the same medium as above. After 1 h incubation, SARS-CoV-2 was added at multiplicity of infection 0.05 IU/cell. After three days of incubation, cells were fixed with 4% paraformaldehyde, permeabilized with 0.2% Triton X100 (both Merck), washed, incubated with anti-SARS-CoV-2antibody (mouse monoclonal antibody detecting SARS-CoV-2 nucleoprotein) for 2 h at room temperature. Followed by 1.5 h incubation with Cy3-labeled donkey anti-mouse IgG (Jackson ImmunoResearch Europe) and documented using fluorescence microscope with camera (Olympus). Images were processed in ImageJ software (NIH) and compound concentrations required to reduce fluorescence by 50% (EC50s) were calculated from plots of percentage of fluorescent cells versus log10 drug concentration using nonlinear regression analysis as above. Cytotoxicity was evaluated by incubating with the same two-fold serial dilutions of each compound as above with Vero E6 cells in 384-well plate.
Background: Cytopathic effects are the visible damage that an infection or toxin causes in cultured cells.

The subject of data set [6] is Enterococcus faecalis 15 376 VanA. Briefly: MIC, broth micro dilution.
Procedure: as §6
The subject of data set [7] is Enterococcus faecalis 51299 VanB. Briefly: MIC, broth micro dilution.
Procedure: as §6
Another data set in a line: in vitro. Conditions: African green monkey.
The next data set concerns Escherichia coli. Briefly: Antibacterial effect, broth micro dilution. The class given is cell-based.
In data set [8] the test system is Enterococcus faecalis 29 212. Briefly: MIC, broth micro dilution.
Procedure: as §6
Data set [9] has as its system Klebsiella pneumoniae carbapenemase-producing bacteria. Briefly: Antibacterial effect, broth micro dilution.
Procedure: as §6
Data set [10] relates to MRSA (Methicillin Resistant Staphylococcus aureus). Briefly: MIC, broth micro dilution.
Procedure: as §6
A further data set has as its system Pseudomonas aeruginosa. Briefly: Antibacterial effect, broth micro dilution. It counts as cell-based.
The next data set concerns Bacillus subtilis. Briefly: MIC, broth micro dilution.
For a further data set, the system named is MCF7 cells. As to the kind of experiment: Antiproliferative MTT assay, 72 h. It counts as cell-based, human. The source says: (§4) Human adherent cancer cell lines A2780, MDA-MB-231 and MCF-7 were obtained from ECACC (European Collection of Cell Cultures, Salisbury, UK; Cat. No.93112519, 92020424, 86012803, respectively). SiHa cell line was obtained from ATCC (American Tissue Culture Collection, Manassas, Virginia, USA; Cat. No. HTB-35). All cell lines used for antiproliferative assay were maintained in Eagle's Minimum Essential Medium (EMEM) completed with 10% fetal bovine serum (FBS), 1% non-essential amino acid solution, and 1% penicillin, streptomycin, and amphotericin B mixture under cell culture conditions described before. All the utilized media and supplements were purchased from Lonza Group Ltd. (Basel, Switzerland).
(§5) The antiproliferative actions of the prepared molecules were determined by the same assay against a panel of adherent human cancer cell lines containing cervical (SiHa), ovarian (A2780) and breast (MCF7, MDA-MB-231) cell lines. Cells were plated onto 96-well microplates (5000 cells/well) and after an overnight incubation treated with two concentrations (10 or 30 μM) of the test substances for 72 h under cell culture conditions. Subsequently, MTT (5 mg/ml in phosphate buffer) was added to the wells, followed by incubation for 4 h. The supernatant was removed, the formazan crystals were then dissolved in 100 µl DMSO. Finally, absorbance values were determined by a microplate reader (BMG Labtech, Ortenberg, Germany) at 545 nm. Two independent measurements were performed with five parallel wells. Results were expressed as percentage of cell proliferation inhibition compared to non-treated control samples regarded as 0%.

The subject of a further data set is A2780 cells. As to the kind of experiment: Antiproliferative MTT assay, 72 h. It counts as cell-based, human. Conditions: Homo sapiens, A2780, 30 μM, read-out: inhibition of the proliferation.
Source text: as §4, §5

Data set [11] has as its system MSSA (Methicillin Sensitive Staphylococcus aureus). Briefly: MIC, broth micro dilution.
Procedure: as §6
Data set [12] concerns SARS-CoV-2. As to the kind of experiment: SARS-CoV-2 immunofluorescence assay (nucleoprotein expression) in Vero E6 cells. It counts as cell-based. Conditions: three days. As for the experimental part:
as §2, §3

Data set [13] relates to SZ95 sebocytes. As to the kind of experiment: Nile Red-assay, arachidonic acid-induced lipogenesis. The class given is cell-based, human. Particulars: 50 μM arachidonic acid, 48 h. Here is the method:
as §1
For quantitative measurement of sebaceous (neutral) lipid content, SZ95 sebocytes (20,000 cells/well) were cultured in 96-well “black well/clear bottom” plates (Cat. No. 655090; Greiner Bio-One, Frickenhausen, Germany), and were treated with compounds in the presence or absence of arachidonic acid (AA; Cat. No. 90010; Cayman Chemical Company, Ann Arbor, MI, USA) or its vehicle (absolute ethanol) as indicated. Subsequently, supernatants were discarded, cells were washed twice with phosphate-buffered saline (PBS; 115 mM NaCl, 20 mM Na2HPO4, pH 7.4; all from Sigma-Aldrich), and 100 µl of a 1 µg/ml Nile Red (Cat. No. N3013; Sigma-Aldrich) solution in PBS was added to each well. The plates were then incubated at 37 °C for 30 min, and fluorescence was measured on FlexStation 3 multimode microplate reader (Molecular Devices, San Francisco, CA, USA). Results, measured in relative fluorescence units, are expressed as percentage of the vehicle (absolute ethanol; Cat. No. 20821.296; VWR International)-treated control regarded as 100%, using 485 nm excitation and 565 nm emission wavelengths.

The test system of data set [14] is SZ95 sebocytes. As to the kind of experiment: Nile Red-assay, spontaneous sebaceous lipogenesis. The class given is cell-based, human. Conditions: applied alone, 48 h.
The subject of another data set is Vero E6 cells. Conditions: uninfected Vero E6 cells, three days, XTT.

By EC50 is commonly meant the concentration giving half of the maximal effect.

The structures appear in SMILES notation. In brackets after ≈: the same amount, converted by molar mass. Where two headings read alike, the source gives them in different places.

Procedure for Bacillus subtilis: as §6

Regarding `CCCCCc1cc(O)c(C/C=C(\C)CCC=C(C)C)c(O)c1` [Compound 2, (−)-cannabigerol], the MIC in [1] (Staphylococcus epidermidis) worked out at 8 µg/mL (≈ 25.3 µM); in data set [4] (Staphylococcus epidermidis), 8 µg/mL (≈ 25.3 µM); in [6] (Enterococcus faecalis, 15376VANA), 4 µg/mL (≈ 12.6 µM); in data set [7] (Enterococcus faecalis, 51299VANB), 4 µg/mL (≈ 12.6 µM); in [8] (Enterococcus faecalis, 29212), 4 µg/mL (≈ 12.6 µM); in data set [10] (Staphylococcus aureus), 4 µg/mL (≈ 12.6 µM). The MIC is 2 µg/mL (≈ 6.32 µM) against Bacillus subtilis and 4 µg/mL (≈ 12.6 µM) in data set [11] (Staphylococcus aureus). Besides, the “viability (MTT signal intensity)” value in the data set on SZ95 sebocytes [2] is recorded as “tended to suppress viability”. The “antibacterial effect (no effect up to)” value (in data set [3]; in the data set on Escherichia coli; in data set [9]; in the data set with Pseudomonas aeruginosa) was above 256 µg/mL in each case. In the data set with SARS-CoV-2 [5] (Severe acute respiratory syndrome coronavirus 2, Vero C1008, 72 h), this compound had an EC50 above 11 µM. In the data set “in vitro”, this compound registered a CC50 of around 11 µM. The inhibition at 30 µM was above 90% in the data set with MCF7 cells (Homo sapiens, MCF7, 30 μM, read-out: inhibition of the proliferation) and above 90% in the data set with A2780 cells.

`C=C(C)[C@@H]1CCC(C)=C[C@H]1c1c(O)cc(CCCCC)c2c1OCN(CCCC)C2` [Compound 8]: the EC50 with SARS-CoV-2 [12] was 31 ± 1.1 µM; with SARS-CoV-2 [5], 21 ± 3.7 µM. In addition, the MIC is above 256 µg/mL in data set [1] (Staphylococcus epidermidis biofilm forming); above 256 µg/mL in data set [4] (Staphylococcus epidermidis mecA); above 256 µg/mL in data set [6] (Enterococcus faecalis 15 376 VanA); 2 µg/mL (≈ 4.86 µM) in data set [7] (Enterococcus faecalis 51299 VanB); 2 µg/mL (≈ 4.86 µM) in [8] (Enterococcus faecalis 29 212); above 256 µg/mL in data set [10]. Moreover, the MIC (with Bacillus subtilis; in [11]) was above 256 µg/mL each time. Moreover, the “viability (MTT signal intensity)” value in the data set on SZ95 sebocytes [2] is given as “cytotoxic effects”. In addition, the “effect on the lipogenic effect of arachidonic acid (AA)” value in the data set on SZ95 sebocytes [13] was “mimic this lipostatic effect”. The “promotion of spontaneous sebaceous lipogenesis, significance” value with SZ95 sebocytes [14] (10 and 30 μM) is given as “statistically significant”. Moreover, the “spontaneous, homeostatic sebaceous lipogenesis” value with SZ95 sebocytes [14] is “rather promote spontaneous, homeostatic sebaceous lipogenesis”. This compound had a CC50 in the data set on Vero E6 cells above 100 µM. Besides, in the data set on MCF7 cells (MCF7, 10 μM), the “inhibition of the proliferation (in words)” value is “much more potent than the parent CBD”. Besides, the “antiproliferative activity (in words)” value with MCF7 cells (MCF7, 10 and 30 μM) is on record as “more sensitive”.
